Laboratory results as given in patent US5254686A, “Procaine double salt complexes” (priority 1992, dated 1993).
Counter-ions that a name gives are not always drawn.

Tests used:
[1] = 1.3-6.5 moles of caffeine per mole of procaine, aqueous solutions; cited from earlier work
plasma cholinesterase = settings: once absorbed; into PABA and DEAE; cited from earlier work
[2] = hydrochloride salt form; cited from earlier work
[3] = unlike other mental stimulants such as amphetamines; cited from earlier work
[4] = solubility in water and ethanol; type: physicochemical
Protocol: To 50 mls. of boiling water was added 27.2 grams (0.1 mole) of procaine HCl with stirring until completely dissolved. With stirring was added 12.3 grams (0.1 mole) of nicotinic acid. This mixture was heated at the boiling point until clear. The solution was allowed to cool and a white crystalline precipitate formed which was separated in a Buchner funnel and washed twice with […] of cold distilled water. […] In contrast, a 1:1 molar mixture of procaine HCl and nicotinic acid melts at 145°-150° C.
Into a hot solution of 50 mls of ethanol and 30 mls of water was dissolved 2.72 grams (0.01 mole) of procaine HCl. To this was added 2.44 grams (0.01 mole) of biotin and heat was maintained until the ingredients reacted and the solution cleared. On cooling, crystallization took place easily. White crystalline platelets were filtered, washed and dried.

Cn1c(=O)c2c(ncn2C)n(C)c1=O [caffeine]
inhibition of procaine hydrolysis [1]: shown to inhibit procaine hydrolysis

CCN(CC)CCOC(=O)c1ccc(N)cc1 [Procaine hydrochloride, procaine hydrochloride]
hydrolysis by plasma cholinesterase (plasma cholinesterase): rapidly hydrolyzed | solubility in water [2]: soluble in water

CCN(CC)CCO [DEAE, diethylaminoethanol]
adverse side effects [3]: no adverse side effects such as depression

CCN(CC)CCOC(=O)c1ccc(N)cc1 [IV, 1:1 Complex of Procaine HCl and Biotin]
solubility in water and ethanol ([4]; water and ethanol): partly soluble

CCN(CC)CCOC(=O)c1ccc(N)cc1 [II, 1:1 Complex of Procaine HCl and Nicotinic Acid]
solubility in water and 95% ethanol ([4]; water and 95% ethanol): moderately soluble
